Tests used:
[1] = Precipitation observed in DSF dose response; assay type: physicochemical; details: DSF buffer 100 mM Hepes, 20 mM MgCl2, pH 7, 1% DMSO
Experimental: (§1) The capacity of the compounds to stabilise IDUA was assessed by DSF. The thermal denaturation of purified human native enzyme was monitored in the presence of the extrinsic fluorescent probe SYPRO® Orange (Thermo Fisher Scientific, Waltham, MA, USA), which binds to hydrophobic parts of proteins that become exposed as the protein unfolds. […] Reactions containing 12.5 μL of 1.5 μM rhIDUA protein (purchased from R&D Systems) in 100 mM Hepes, 20 mM MgCl2, pH 7, to a final protein concentration of 0.75 μM with SYPRO Orange 10X, and 12.5 μL of the different compound solutions dissolved in 100% DMSO and diluted into the protein buffer to achieve final concentrations of 1% DMSO. The intensity of SYPRO Orange fluorescence after a systematic increase in temperature was monitored in the Roche LightCycler® 480 II device (Roche Diagnostics). The significance of the melting temperature (Tm) shifts was evaluated based on two criteria: absolute ΔTm shift > 0.5 °C (instrumental criterion) and absolute ΔTm standard deviation ≤ 0.2 (statistical criterion). The thermal shift dose response was performed at various increasing concentrations (from 0.04 to 90 μM) of compound #18 (GT-01803) with rhIDUA (obtained from the Institute of Biotechnology and Biomedicine at the Autonomous University of Barcelona (UAB), Bellaterra, Spain).

[2] = molecular target: T1, IDUA (Homo sapiens, UniProt P35475); experiment: Differential scanning fluorimetry (DSF) thermal shift; assay type: binding; set-up: purchased R&D Systems
T1 sequence (P35475 28-653): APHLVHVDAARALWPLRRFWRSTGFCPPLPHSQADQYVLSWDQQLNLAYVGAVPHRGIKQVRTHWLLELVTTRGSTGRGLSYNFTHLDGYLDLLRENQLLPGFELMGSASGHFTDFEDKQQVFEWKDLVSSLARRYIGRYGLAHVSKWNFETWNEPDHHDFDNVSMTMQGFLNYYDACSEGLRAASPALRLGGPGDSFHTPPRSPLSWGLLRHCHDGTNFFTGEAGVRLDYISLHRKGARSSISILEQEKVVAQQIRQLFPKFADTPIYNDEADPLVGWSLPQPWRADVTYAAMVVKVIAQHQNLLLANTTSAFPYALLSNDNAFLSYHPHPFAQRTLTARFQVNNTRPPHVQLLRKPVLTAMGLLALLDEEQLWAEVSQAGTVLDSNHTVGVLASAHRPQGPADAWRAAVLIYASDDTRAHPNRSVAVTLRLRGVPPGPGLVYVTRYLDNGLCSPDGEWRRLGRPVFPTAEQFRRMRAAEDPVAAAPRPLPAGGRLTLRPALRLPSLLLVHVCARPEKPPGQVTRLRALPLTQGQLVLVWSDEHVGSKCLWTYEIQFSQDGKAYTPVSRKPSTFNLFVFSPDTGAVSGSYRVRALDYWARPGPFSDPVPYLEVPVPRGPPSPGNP
Experimental: as §1

[3] = molecular target: T2, rhIDUA (Aldurazyme) (Homo sapiens, UniProt P35475); experiment: IDUA assay in bone marrow of mice co-administered rhIDUA and GT-01803; assay type: in vivo, male C57BL/6 mice; details: GT-01803 5, 10, 20 mg/kg i.v. + rhIDUA 1.2 mg/kg i.v.; 6, 8, 10 h; dose-dependent, significant at 20 mg/kg
T2 sequence (P35475 28-653): T1 sequence (P35475 28-653)
Experimental: Mice studies were performed by Sai Life Sciences (Pune, India). All procedures of the present study were in accordance with the guidelines provided by the Committee for the Purpose of Control and Supervision of Experiments on Animals (CPCSEA) as published in The Gazette of India, December 15, 1998. In addition, prior approval from the Institutional Animal Ethics Committee (IAEC) was obtained before the initiation of the study. Healthy male C57BL/6 mice (8–10 weeks old) weighing between 22 and 25 g were procured (Global, Pune, India). Three to five mice were housed in each cage. Temperature and humidity were maintained at 22 ± 2 °C and 41–63%, respectively, and illumination was controlled to give a sequence of a 12 h light and 12 h dark cycle. In the study’s in-life phase, we provided all mice with cage enrichment to minimize anxiety. We conducted bone marrow sampling under isoflurane anesthesia, maintaining it throughout the entire procedure. […] All procedures were carried out according to our in-house Standard Operating Procedures and monitored by a veterinarian if required. […]
Bone marrow samples from mice were collected at 2, 6, 8 and 10 h after treatment with compound #18 (GT-01803). […] The relative fluorescence unit (RFU) in the IDUA enzymatic assay was measured in duplicates (two replicates) and then averaged to obtain the enzyme activity per animal.

CCN(CC(=O)Nc1c(Cl)cccc1Cl)Cc1nc2ccsc2c(=O)[nH]1 [GT-01803]
concentration at which precipitation was observed [1]: 100 µM | rhIDUA stabilization by DSF (ΔTm) ([2]; 30 μM, compounds #1 to #21): highest rhIDUA stabilization | increase of rhIDUA melting temperature ([2]; dose response 0.04 to 90 μM, neutral pH): 4 ºC | IDUA enzymatic activity levels in bone marrow [3]: increased

— paper PMC11104609, “Discovery of allosteric regulators with clinical potential to stabilize alpha-L-iduronidase in mucopolysaccharidosis type I” (PLOS ONE, 2024)
